Assay [1] addresses T1, human DNA topoisomerase I (Homo sapiens, UniProt P11387).
T1 construct: gene TOP1
T1 sequence (P11387 2-765): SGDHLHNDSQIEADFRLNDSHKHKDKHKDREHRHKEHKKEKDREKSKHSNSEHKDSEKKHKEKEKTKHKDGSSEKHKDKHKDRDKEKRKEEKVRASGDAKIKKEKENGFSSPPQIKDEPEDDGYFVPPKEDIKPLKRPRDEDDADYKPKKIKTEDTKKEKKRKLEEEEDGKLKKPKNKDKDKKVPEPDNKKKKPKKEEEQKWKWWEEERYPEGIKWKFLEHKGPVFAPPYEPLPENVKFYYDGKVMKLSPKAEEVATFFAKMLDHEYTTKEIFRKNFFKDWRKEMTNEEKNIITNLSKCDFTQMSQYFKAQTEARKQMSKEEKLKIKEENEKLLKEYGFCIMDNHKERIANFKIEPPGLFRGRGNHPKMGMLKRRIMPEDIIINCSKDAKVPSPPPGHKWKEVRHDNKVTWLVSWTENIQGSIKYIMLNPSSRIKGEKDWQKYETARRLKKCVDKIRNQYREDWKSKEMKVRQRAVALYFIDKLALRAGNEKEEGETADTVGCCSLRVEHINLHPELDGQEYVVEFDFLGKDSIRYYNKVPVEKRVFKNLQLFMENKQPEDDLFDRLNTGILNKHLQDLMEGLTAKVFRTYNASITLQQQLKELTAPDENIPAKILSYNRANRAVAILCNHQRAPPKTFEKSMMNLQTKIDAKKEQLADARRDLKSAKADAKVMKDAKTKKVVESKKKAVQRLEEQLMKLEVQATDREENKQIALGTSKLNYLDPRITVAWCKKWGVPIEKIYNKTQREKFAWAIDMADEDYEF
In words: oligonucleotide cleavage assay:[…] BA added before […] CPT. Type of assay: biochemical.

The target in assay [2] is T1, human DNA topoisomerase I. The assay can be described thus: DNA relaxation assay with enzyme preincubation; also EMSA and cleavage assays. Type of assay: biochemical. (In general: A gel shift assay detects complexes by their altered migration in electrophoresis.)

Take `C=C(C)[C@@H]1CC[C@]2(C(=O)O)CC[C@]3(C)[C@H](CC[C@@H]4[C@@]5(C)CC[C@H](O)C(C)(C)[C@@H]5CC[C@]43C)[C@@H]12` [Betulinic acid]: the “oligonucleotide cleavage assay: 20 uM BA added before 20 uM CPT” value in assay [1] is given as “SQDG/BA abrogates CPT mediated topo I-oligo covalent complex formation”.

In assay [2], `CCCCCCCCCCCCCCCC(=O)OC[C@H](CO[C@H]1O[C@H](CS(=O)(=O)O)[C@@H](O)[C@H](O)[C@H]1O)OC(=O)CCCCCCCCCCCCCCC` [SQDG] came in with an IC100 of 1.5 µM.

Source of the values: paper PMC4507174, “Sulfonoquinovosyl diacylglyceride selectively targets acute lymphoblastic leukemia cells and exerts potent anti-leukemic effects in vivo” (Scientific Reports, 2015).
